The values below come from patent publication US9182350B2, “Naphthalene-based two-photon fluorescent probes, preparation method and use thereof” (DALIAN UNIVERSITY OF TECHNOLOGY, priority 2012, dated 2015).

Molecules are shown by their SMILES. ≈ marks a conversion by molar mass, not a printed value.

A short description of one data set: physchem. The conditions noted are these: water.
Data set [1] deals with tumor tissue sections of mice' lungs. Put plainly: Two-photon fluorescence labeling of tumor tissue sections. The note with it: sections soaked in probe PBS solution (10 μM), 30 min. The procedure:
(§1) FIG. 8 is the two-photon fluorescent imaging of fluorescent probe compound A4 for the tumor tissues and non-tumor tissues of mice' lungs in example 11. The sections of tumor tissues and non-tumor tissues of mice' lungs were incubated with 4 μL of A4 (10.0 μM). The representative areas were selected and imaged with oil-immersion objective lens (100×). The resulting images are representative of replicate experiments (n=3). FIG. 8 (a1) and (a2) are the confocal images of tumor tissue sections of mice' lungs after adding probe A4, FIG. 8 (b1) and (b2) are the confocal images of non-tumor tissue sections of mice' lungs after adding probe A4. The images of FIG. 8 (a1) and (b1) were recorded with the emission in the range of 500-550 nm. The images of FIG. 8 (a2) and (b2) were recorded with the emission in the range of 570-650 nm.
(§2) FIG. 11 is two-photon fluorescent imaging of fluorescent probe compound A5 for the tumor tissues and non-tumor tissues of mice' lungs in example 15. The sections of tumor tissues and non-tumor tissues of mice' lungs were incubated with 4 μL of […] (10.0 μM). The representative areas were selected and imaged with oil-immersion objective lens (100×). […] The images of FIG. 11 (a1) and (b1) were recorded with the emission in the range of 500-550 nm. The images of FIG. 11 (a2) and (b2) were recorded with the emission in the range of 570-650 nm.
(§3) Tumor tissue sections and non-tumor tissues sections of mice' lungs were soaked in the compound A2 PBS solution (10 μM), respectively. After 30 min, take out the section, mounting, safekeeping, the fluorescence images were obtained by two-photon spectral confocal multiphoton microscope. […] The images were recorded with the emission in the range of 500-550 nm.
(§4) Tumor tissue sections and non-tumor tissues sections of mice' lungs were soaked in the compound A4 PBS solution (10 μM), respectively. After 30 min, take out the section, mounting, safekeeping, the fluorescence images were obtained by two-photon spectral confocal multiphoton microscope. […] The images were recorded with the emission in the range of 500-550 nm. […]

The subject of data set [2] is non-tumor tissue sections of mice' lungs. Nature of the data set: Two-photon fluorescence labeling of non-tumor tissue sections. The note with it: sections soaked in probe PBS solution (10 μM), 30 min. On the procedure: as §1, §2, §3, §4
The nature of data set [3]: Water solubility experiment (absorbance vs concentration at maximum absorption wavelength).
From the text: (§9) The absorbance of different concentrations of compound A2 solution at maximum absorption wavelength was detected. The results are representative value from replicate experiments (n=3).
(§10) The absorbance of different concentrations of compound A4 solution at maximum absorption wavelength was detected. The results are representative value from replicate experiments (n=3).
(§11) The experiment instrument is Agilent 8453 U-V spectrophotometer.
For a further data set, the system named is HEK 293 cells. Put plainly: Two-photon fluorescence labeling of non-cancer cells. It counts as cell-based. The conditions noted are these: 4 μL probe-DMSO solution (4 μM), 60 min, 5% CO2, 37° C., PBS wash. The procedure: (§5) FIG. 2 is the two-photon fluorescent imaging of fluorescent probe compound A1 in the tumor cells and non-tumor cells in example 2. Hela cells and HEK293 cells were incubated with 4 μL of A1-DMSO (4.0 μM) for 60 min in 5% CO2 at 37° C. The representative areas were selected and imaged with oil-immersion objective lens (100×). The resulting images are representative of replicate experiments (n=3). The images were recorded with the emission in the range of 500-550 nm. FIG. 2 (a) is confocal image of Hela cell, FIG. 2 (b) is confocal image of HEK293 cell.
(§6) FIG. 10 is two-photon fluorescent imaging of fluorescent probe compound A2 in the tumor cells and non-tumor cells in example 14. […] The images of FIG. 10 (a1) and (b1) were recorded with the emission in the range of 500-550 nm. The images of FIG. 10 (a2) and (b2) were recorded with the emission in the range of 570-650 nm.
(§7) Compound A1 was used, which was synthesized in the example 1. […] The fluorescence imaging was obtained with a two-photon spectral confocal multiphoton microscope. […] The images were recorded with the emission in the range of 500-550 nm.
(§8) Compound A5 was used, which was synthesized in the example 13. […] The fluorescence imaging was obtained with a two-photon spectral confocal multiphoton microscope. […] The images of FIG. 10(a1) and FIG. 10(b1) were recorded with the emission in the range of 500-550 nm. […]

A further data set concerns HeLa cells. Put plainly: Two-photon fluorescence labeling of cancer cells. It counts as cell-based. The conditions noted are these: 4 μL probe-DMSO solution (4 μM), 60 min, 5% CO2, 37° C., PBS wash. On the procedure:
as §5, §6, §7, §8

From the text for physchem: as §9, §10, §11

In the case of `COc1ccc2c(c1)c(CC(=O)NCCCCCCNc1ccc3c4c(cccc14)-c1nc4ccccc4nc1-3)c(C)n2C(=O)c1ccc(Cl)cc1` [Compound A4], in “physchem”, the concentration in solution (solubility) was 24 µM (≈ 17 µg/mL). Further, the “fluorescence signal in tumor tissue sections of mice' lungs (two-photon confocal imaging)” value in data set [1] is given as “strong fluorescence signals”. In data set [2], the “fluorescence signal in non-tumor tissue sections of mice' lungs (two-photon confocal imaging)” value is “no any fluorescence signals”.
As for `COc1ccc2c(c1)c(CC(=O)NCCCCCCNc1ccc3c4c1cccc4c(=O)n1c4ccccc4nc31)c(C)n2C(=O)c1ccc(Cl)cc1` [Compound A2], the “fluorescence signal in tumor tissue sections of mice' lungs (two-photon confocal imaging)” value in data set [1] is “strong fluorescence signals”. Moreover, the “fluorescence signal in non-tumor tissue sections of mice' lungs (two-photon confocal imaging)” value in data set [2] was “no any fluorescence signals”. Moreover, the concentration in solution in data set [3] (solubility) came to 5 µM (≈ 3.62 µg/mL).
As for `COc1ccc2c(c1)c(CC(=O)NCCCCCCNc1ccc3c4c(cccc14)C(=O)N(C)C3=O)c(C)n2C(=O)c1ccc(Cl)cc1` [Compound A1], in the data set on HEK 293 cells, the “fluorescence signal in HEK 293 cells (two-photon confocal imaging)” value was “no any fluorescence signal”. In addition, the “fluorescence signal in HeLa cells (two-photon confocal imaging)” value in the data set with HeLa cells is reported as “strong fluorescence signals”.
`COc1ccc2c(c1)c(CC(=O)NCCCCCCNc1ccc3c4c(cccc14)-c1nc4ccc([N+](=O)[O-])cc4nc1-3)c(C)n2C(=O)c1ccc(Cl)cc1` [Compound A5]: the “fluorescence signal in tumor tissue sections of mice' lungs (two-photon confocal imaging)” value in data set [1] is recorded as “strong fluorescence signals”. Moreover, in the data set with HEK 293 cells, the “fluorescence signal in HEK 293 cells (two-photon confocal imaging)” value is recorded as “no any fluorescence signal”. The “fluorescence signal in non-tumor tissue sections of mice' lungs (two-photon confocal imaging)” value in data set [2] was “no any fluorescence signals”. In the data set on HeLa cells, the “fluorescence signal in HeLa cells (two-photon confocal imaging)” value is on record as “strong fluorescence signals”.
